Results from patent US10760052B2, “Method of inhibiting tau phosphorylation” (priority 2012, dated 2020).
Where two headings read alike, the source gives them in different places.

Target: T1, mu opiate receptor (MOR) (Rattus norvegicus, UniProt P33535)
T1 construct: from tissue; host or cells: striatum (membrane preparation)
Format: biochemical

[1] = [35S]GTPγS binding to Gαo in striatal membranes, compound 0.1 μM
[2] = [35S]GTPγS binding to Gαo in striatal membranes, compound 1 μM
[3] = [35S]GTPγS binding to Gαo in striatal membranes, compound 1 μM plus 1 μM β-funaltrexamine (MOR antagonist)
[4] = 0.1 μM compound, striatal membranes, Series C-2
[5] = 1 μM compound + 1 μM β-FNA (selective MOR antagonist), Series C-2
[6] = 1 μM compound, striatal membranes, Series C-2

T1 sequence (P33535 whole entry): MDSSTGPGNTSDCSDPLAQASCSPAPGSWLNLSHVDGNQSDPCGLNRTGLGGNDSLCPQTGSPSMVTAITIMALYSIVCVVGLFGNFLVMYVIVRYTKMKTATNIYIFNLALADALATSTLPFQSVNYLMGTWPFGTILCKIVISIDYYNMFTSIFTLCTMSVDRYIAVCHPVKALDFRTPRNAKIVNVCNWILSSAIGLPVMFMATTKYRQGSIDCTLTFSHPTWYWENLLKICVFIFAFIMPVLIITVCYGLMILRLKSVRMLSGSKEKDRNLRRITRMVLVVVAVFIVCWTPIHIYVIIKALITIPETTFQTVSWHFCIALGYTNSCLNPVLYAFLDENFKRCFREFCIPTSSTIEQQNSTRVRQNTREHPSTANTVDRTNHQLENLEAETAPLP

| SMILES | % DAMGO (0.1 μM) | % DAMGO (1 μM) | % DAMGO + BFNA | Concentration of FLNA-Binding Compound as Agonist 0.1 μM [1] | Concentration of FLNA-Binding Compound as Agonist 1 μM [2] | Concentration of FLNA-Binding Compound as Agonist 1 μM + BFNA [3] | [35S]GTPγS binding, FLNA-Binding Compound as Agonist at 0.1 μM [4] | [35S]GTPγS binding, FLNA-Binding Compound as Agonist at 1 μM + BFNA [5] | [35S]GTPγS binding, FLNA-Binding Compound as Agonist at 1 μM [6] | Concentration of FLNA-Binding Compound as Agonist 0.1 μM | Concentration of FLNA-Binding Compound as Agonist 1 μM | Concentration of FLNA-Binding Compound as Agonist 1 μM + BFNA | [35S]GTPγS binding, FLNA-Binding Compound as Agonist at 0.1 μM | [35S]GTPγS binding, FLNA-Binding Compound as Agonist at 1 μM | [35S]GTPγS binding, FLNA-Binding Compound as Agonist at 1 μM + BFNA |
| --- | --- | --- | --- | --- | --- | --- | --- | --- | --- | --- | --- | --- | --- | --- | --- |
| COc1cc(OC)cc(C(=O)CC2c3c(cc4c(c3OC)OCO4)CC[N+]2(C)C)c1 (stereo not drawn) [Compound B0035] | 109.8% | 93.2% | 142.4% | 188.0% | 248.7% | 74.2% |  |  |  |  |  |  |  |  |  |
| CC1CCC(C(C)C)C(OCC(O)CN2CC(C)OC(C)C2)C1 (stereo not drawn) [Compound A3333] | 88.9% | 101.0% | 136.7% | 170.7% | 328.3% | 65.9% |  |  |  |  |  |  |  |  |  |
| O=C1CN(Cc2ccccc2)C2(CCN(CC3CC3)CC2)N1 [Compound C0125M] | 89.1% | 78.6% | 329.3% |  |  |  | 168.6% | 159.7% | 195.2% |  |  |  |  |  |  |
| OC(COc1ccc(Br)c(F)c1)CN1CCSCC1 (stereo not drawn) [Compound A0059] | 63.5% | 56.4% | 214.8% |  |  |  |  |  |  | 99.2% | 129.9% | 85.7% |  |  |  |
| COc1c2c(cc3c1C(CC(=O)/C=C/c1ccc(Cl)cc1)[N+](C)(C)CC3)OCO2 (stereo not drawn) [Compound B0019] | 59.7% | 96.0% | 123.3% | 101.0% | 256.5% | 81.4% |  |  |  |  |  |  |  |  |  |
| CC(=O)c1ccc(S(=O)(=O)N2CCC3(CC2)NC(=O)C(Cc2cnc[nH]2)N3S(=O)(=O)c2ccc(C(C)=O)cc2)cc1 (stereo not drawn) [Compound C0084M] | 97.3% | 114.9% | 280.4% | 163.1% | 255.5% | 133.2% |  |  |  |  |  |  |  |  |  |
| CC(=O)c1ccc(S(=O)(=O)N2CCOC23CCNCC3)cc1 [Compound C0046] | 197.4% | 211.5% | 356.4% |  |  |  | 286.2% | 156.8% | 492.9% |  |  |  |  |  |  |
| O=S(=O)(c1cccc2cccnc12)N1CCC2(CC1)OCCN2S(=O)(=O)c1cccc2cccnc12 [Compound C0143M] | 47.1% | 59.3% | 94.7% | 81.0% | 193.3% | 86.5% | 81.0% | 86.5% | 193.3% |  |  |  |  |  |  |
| CC(=O)c1ccc(S(=O)(=O)N2CCC3(CC2)OCCN3S(C)(=O)=O)cc1 [Compound C0056] | 68.0% | 83.0% | 196.1% |  |  |  | 98.6% | 86.3% | 193.4% |  |  |  |  |  |  |
| COc1c2c(cc3c1C(CC(=O)Cc1ccccc1F)[N+](C)(C)CC3)OCO2 (stereo not drawn) [Compound B0055] | 91.8% | 133.1% | 446.8% | 162.1% | 338.5% | 117.5% |  |  |  |  |  |  |  |  |  |
| O=C1CN(Cc2ccccc2)C2(CCNCC2)N1 [Compound C0115M] | 105.7% | 102.0% | 249.3% |  |  |  |  |  |  |  |  |  | 177.2% | 226.8% | 118.4% |
| COc1ccc(NC(=O)N2CCC3(CC2)NCCO3)cc1 [Compound C0151M-2] | 201.6% | 122.0% | 233.1% |  |  |  | 346.8% | 212.8% | 397.6% |  |  |  |  |  |  |
| COC(=O)c1ccc(S(=O)(=O)N2CCC3(CC2)OCCN3S(=O)(=O)c2ccc(C(=O)OC)cc2)cc1 [Compound C0028] | 55.6% | 60.5% | 472.3% | 93.9% | 132.4% | 78.4% |  |  |  |  |  |  |  |  |  |
| CC1CCC(C(C)C)C(OCC(O)CN2CCCCCCC2)C1 (stereo not drawn) [Compound A0014] | 83.2% | 67.5% | 214.3% | 147.0% | 174.9% | 140.8% |  |  |  |  |  |  |  |  |  |
| COc1cccc(S(=O)(=O)N2CCC3(CC2)OCCN3S(=O)(=O)c2cccc(OC)c2)c1 [Compound C0002] | 51.4% | 33.9% | 6.1% | 88.4% | 93.8% | 3.9% |  |  |  |  |  |  |  |  |  |
| COc1ccc(S(=O)(=O)N2CCC3(CC2)NCCC(=O)N3)cc1 [Compound C0142M] | 97.8% | 95.2% | 251.1% |  |  |  | 143.7% | 98.7% | 192.5% |  |  |  |  |  |  |
| CC1CCC(C(C)C)C(OCC(O)Cn2ccc3ccccc32)C1 (stereo not drawn) [Compound A0078] | 124.9% | 92.3% | 274.2% |  |  |  |  |  |  | 250.5% | 289.9% | 147.8% |  |  |  |
| O=S(=O)(c1ccc(Oc2ccccc2)cc1)N1CCC2(CC1)OCCN2S(=O)(=O)c1ccc(Oc2ccccc2)cc1 [Compound C0149M] | 122.0% | 124.8% | 102.3% | 209.8% | 406.7% | 93.4% |  |  |  |  |  |  |  |  |  |
| CC1CN(CC(O)COc2ccc(Br)c(F)c2)CC(C)O1 (stereo not drawn) [Compound A0041] | 108.4% | 102.8% | 68.5% | 212.7% | 283.6% | 50.6% |  |  |  |  |  |  |  |  |  |
| COc1cc(S(=O)(=O)N2CCC3(CC2)OCCN3S(=O)(=O)c2cc(OC)c(OC)c(OC)c2)cc(OC)c1OC [Compound C0062] | 81.9% | 134.7% | 149.9% | 127.8% | 310.5% | 59.8% |  |  |  |  |  |  |  |  |  |
| O=C1CN(Cc2ccccc2)C2(CCN(S(=O)(=O)c3cc(Cl)cc(Cl)c3O)CC2)N1 [Compound C0138M] | 86.3% | 90.9% | 131.0% | 126.9% | 183.9% | 51.5% |  |  |  |  |  |  |  |  |  |
| CC1CCC(C)C(OCC(O)CN2CC(C)OC(C)C2)C1 (stereo not drawn) [Compound A0022] | 90.0% | 80.9% | 53.7% | 154.1% | 216.0% | 28.0% |  |  |  |  |  |  |  |  |  |
| O=[N+]([O-])c1ccc(S(=O)(=O)N2CCC3(CC2)NCCCO3)cc1 [Compound C0045] | 88.3% | 109.1% | 634.3% |  |  |  | 149.2% | 105.3% | 238.8% |  |  |  |  |  |  |
| COc1cc(F)ccc1C(=O)CC1c2c(cc3c(c2OC)OCO3)CC[N+]1(C)C (stereo not drawn) [Compound B0007] | 95.3% | 86.1% | 98.2% | 168.3% | 223.3% | 64.5% |  |  |  |  |  |  |  |  |  |
| O=S(=O)(c1ccccc1Oc1ccccc1)N1CCC2(CC1)NCCO2 [Compound C0149M-2] | 122.0% | 124.8% | 102.3% |  |  |  | 209.8% | 93.4% | 406.7% |  |  |  |  |  |  |
| O=S(=O)(c1ccc(Br)cc1C(F)(F)F)N1CCC2(CC1)OCCN2S(=O)(=O)c1ccc(Br)cc1C(F)(F)F [Compound C0068] | 53.4% | 83.8% | 307.8% | 107.2% | 263.1% | 165.9% |  |  |  |  |  |  |  |  |  |
| CC1CCC(C(C)C)C(OCC(O)CN2CC(C)CC(C)C2)C1 (stereo not drawn) [Compound A0008] | 109.6% | 102.1% | 505.3% | 163.8% | 235.0% | 133.9% |  |  |  |  |  |  |  |  |  |
